Data set [1] is described as follows: Reversal of P-gp-mediated multidrug resistance in human KB/VCR cells assessed as potentiation of vincristine-induced antiproliferative activity by measuring vincristine IC50 at 2 uM measured after 72 hrs by CCK8 assay (Rvb = 0.51 uM).
Data set [2] in a line: Reversal of P-gp-mediated multidrug resistance in human KB/VCR cells assessed as potentiation of vincristine-induced antiproliferative activity by measuring vincristine IC50 at 20 uM measured after 72 hrs by CCK8 assay (Rvb = 0.78 uM).

Consider `CC(=O)O[C@@H]1[C@@H]2[C@@H](OC(C)=O)[C@]3(OC2(C)C)[C@H](C)C[C@@H](OC(C)=O)[C@H](OC(C)=O)[C@@]3(C)[C@@H]1OC(=O)c1ccccc1`, for which the results for the IC50 in data set [1] and in data set [2] were 150 nM and 22 nM, respectively.

With `CC(=O)O[C@@H]1[C@@H]2[C@@H](OC(C)=O)[C@]3(OC2(C)C)[C@H](C)CC[C@H](OC(C)=O)[C@@]3(C)[C@H]1OC(=O)c1ccccc1`, the IC50 in data set [1] came out at 240 nM; in data set [2], 34 nM.

For `CC(=O)OC[C@]12[C@H](OC(C)=O)C(=O)[C@@H]3[C@@H](OC(C)=O)[C@]1(OC3(C)C)[C@H](C)C[C@H](O)[C@@H]2OC(C)=O`, the IC50 came out at 480 nM in data set [1] and 330 nM in data set [2].

For the compound `COc1cc2c(cc1OC)CN(CCc1ccc(-n3nnc(-c4cc(OC)c(OC)cc4NC(=O)c4cc(=O)c5ccccc5o4)n3)cc1)CC2` [Encequidar], in data set [1], the IC50 was 16 nM.

As for `CC(=O)O[C@H]1[C@@H]2[C@@H](OC(C)=O)[C@]3(OC2(C)C)[C@H](C)C[C@@H](OC(C)=O)[C@H](OC(C)=O)[C@@]3(C)[C@H]1OC(=O)c1ccccc1`, the values for the IC50 in data set [1] and in data set [2] were 190 nM and 56 nM, respectively.

For `CC(=O)O[C@@H]1C[C@@H](C)[C@]23OC(C)(C)[C@H]([C@@H](O)[C@H](OC(=O)c4ccccc4)[C@@]2(C)[C@H]1OC(C)=O)[C@H]3OC(=O)/C=C/c1ccccc1`, the half-maximal inhibitory concentration (IC50) in data set [1] came to 48 nM.

Turning to `CC(=O)O[C@H]1[C@@H]2[C@@H](OC(=O)/C=C/c3ccccc3)[C@]3(OC2(C)C)[C@H](C)C[C@@H](OC(C)=O)[C@H](OC(C)=O)[C@@]3(C)[C@H]1OC(=O)c1ccccc1`, the IC50 in data set [1] was 100 nM; in data set [2], below 8 nM.

On to `CC(=O)O[C@@H]1[C@H]2[C@H](O)[C@H](OC(=O)c3ccccc3)[C@]3(C)[C@@H](OC(C)=O)[C@H](O)C[C@@H](C)[C@@]13OC2(C)C`, for which the values for the IC50 in data set [1] and in data set [2] were 430 nM and 310 nM, respectively.

Take `CC(=O)O[C@@H]1[C@@H]2[C@@H](OC(C)=O)[C@]3(OC2(C)C)[C@H](C)CC[C@H](OC(C)=O)[C@@]3(C)[C@@H]1OC(=O)c1ccccc1`: the IC50 in data set [1] was 200 nM; in data set [2] it was below 8 nM.

Turning to `CCCCCC(=O)O[C@@H]1[C@@H]2[C@@H](OC(C)=O)[C@]3(OC2(C)C)[C@H](C)C[C@@H](OC(C)=O)[C@H](OC(C)=O)[C@@]3(C)[C@H]1OC(=O)c1ccccc1`, the IC50 in data set [1] is 350 nM; in data set [2] it was 21 nM.

For the compound `CC(=O)O[C@H]1CC[C@@H](C)[C@]23OC(C)(C)[C@H](C[C@H](OC(=O)c4ccccc4)[C@]12C)[C@H]3OC(=O)c1ccccc1`, the IC50 in data set [1] is 100 nM.

`CC(=O)O[C@H]1[C@@H]2[C@@H](OC(=O)/C=C/c3ccccc3)[C@]3(OC2(C)C)[C@H](C)C[C@H](O)[C@H](OC(C)=O)[C@@]3(C)[C@H]1OC(=O)c1ccccc1`: the IC50 in data set [1] was 37 nM.

As to `CC(=O)OC[C@]12[C@H](OC(C)=O)C(=O)[C@@H]3[C@@H](O)[C@]1(OC3(C)C)[C@H](C)[C@@H](O)[C@H](OC(C)=O)[C@@H]2OC(C)=O`, the concentration for half-maximal inhibition (IC50) was 500 nM in data set [1] and 530 nM in data set [2].

On to `CC(=O)O[C@@H]1C[C@@H](C)[C@]23OC(C)(C)[C@H](C[C@H](OC(=O)c4ccccc4)[C@]2(C)[C@H]1OC(C)=O)[C@H]3OC(=O)/C=C/c1ccccc1`, for which, in data set [1], the IC50 came out at 58 nM.

Consider `CC(=O)O[C@H]1CC[C@@H](C)[C@]23OC(C)(C)[C@H](C[C@H](OC(=O)c4ccccc4)[C@]12C)[C@H]3OC(C)=O`, for which the IC50 in data set [1] was found to be 210 nM; in data set [2] it was 15 nM.

For the compound `CC(=O)O[C@@H]1[C@@H]2[C@@H](OC(C)=O)[C@]3(OC2(C)C)[C@H](C)C[C@H](OC(=O)/C=C/c2ccccc2)[C@H](OC(C)=O)[C@@]3(C)[C@@H]1OC(=O)c1ccccc1`, the IC50 stood at 100 nM in data set [1] and 26 nM in data set [2].

Take `CC(=O)OC[C@]12[C@H](OC(C)=O)C(=O)[C@@H]3[C@@H](O)[C@]1(OC3(C)C)[C@H](C)[C@@H](OC(C)=O)[C@H](OC(C)=O)[C@@H]2OC(C)=O`: the IC50 in data set [1] was determined as 470 nM; in data set [2], 260 nM.

`CC(=O)OC[C@]12[C@H](OC(C)=O)C(=O)[C@@H]3[C@@H](OC(C)=O)[C@]1(OC3(C)C)[C@H](C)[C@@H](O)[C@H](OC(C)=O)[C@@H]2OC(C)=O`: the IC50 in data set [1] is 550 nM; in data set [2] it was 390 nM.

For the compound `CC(=O)O[C@H]1[C@@H]2[C@@H](OC(=O)c3cccnc3)[C@]3(OC2(C)C)[C@H](C)C[C@H](OC(C)=O)[C@@H](OC(C)=O)[C@@]3(C)[C@H]1OC(=O)c1ccccc1`, the IC50 in data set [1] was 64 nM; in data set [2] it was below 8 nM.
